From publication PMC8197855, “Peptide/β-Peptoid Hybrids with Activity against Vancomycin-Resistant Enterococci: Influence of Hydrophobicity and Structural Features on Antibacterial and Hemolytic Properties” (International Journal of Molecular Sciences, 2021)

How the values were obtained:
E. faecium ATCC 19434 = assay: Broth checkerboard assay with conventional antibiotics; format: cell-based, Enterococcus faecium
Protocol: The strain culture preparation and final volume were the same as in the MIC assay. […] The plates were incubated for 24 h at 37 °C without shaking. […] All experiments were performed in two biological replicates.
To evaluate the effect of the combinations, the fractional inhibitory concentration index (FICI) was calculated for each combination according to:ΣFIC = FICA + FICB = (CA/MICA) + (CB/MICB)
The drug interaction was scored as follows: synergy—FICI ≤ 0.5; no interaction—FICI > 0.5–4; antagonism—FICI > 4 [40].

[1] = test system: HepG2 cell line ATCC HB-8065; assay: Effect on HepG2 cell viability (MTT assay); format: cell-based, human; details: 48 h
Protocol: The effect of peptidomimetics on mammalian cell viability was determined on the HepG2 cell line ATCC HB-8065. In brief, HepG2 cells were seeded into flat-bottom 96-well plates at a concentration of 5000 cells per well. The cells were incubated for 24 h in a humidified incubator (5% CO2, 37 °C). Subsequently, the medium was removed, and the cells were incubated for 48 h in a humidified incubator (5% CO2, 37 °C) with peptidomimetics in serial dilutions. An MTT assay was then performed; in brief, after incubation with the test compounds, the culture medium was removed and fresh medium with 0.2 mg/mL MTT was then added into each well. After incubation (3 h, 37 °C, 5% CO2), the medium with MTT was removed, and 200 μL dimethyl sulfoxide was added at once to each sample. The absorbance of MTT was measured using the spectrophotometer TECAN Infinite M1000 at 540 nm. The relative viability was calculated by using the formula:ODtreated cells × 100/ODcontrol cells
The IC50 values were calculated using the program Graph Pad Prism 5.0. For all compounds, the test range was 10–1280 μg/mL.

[2] = Hydrophobicity by analytical RP-HPLC (% MeCN at peak elution); format: physicochemical
Protocol: Water was filtered by using an Evoqua LaboStar PRO TWF Ultra Pure Water System prior to use in high-performance liquid chromatography (HPLC). The retention time for each peptidomimetic was determined by analytical HPLC using a Phenomenex Luna C18(2) HST column (100 mm × 3 mm; particle size: 2.5 μm; pore size: 100 Å) on a Shimadzu Prominence and Shimadzu Nexera system using an aqueous MeCN gradient with 0.1% trifluoroacetic acid (TFA) added (eluent A: 5:95 MeCN–H2O + 0.1% TFA; eluent B: 95:5 MeCN–H2O + 0.1% TFA); a flow rate of 0.5 mL/min was used. For the elution of peptidomimetics, a linear gradient of 0% to 60% B over 10 min was used with UV detection at λ = 220 nm. The percentage MeCN at peak elution was calculated from the retention time (tR) by using the following formula:%MeCN = [0.95 × 0.6 × tR/10 + 0.05 × (1 − 0.6 × tR/10)] × 100%

E. faecium isolates = format: cell-based, Enterococcus faecium; details: 24 h
Protocol: (§1) Overnight cultures of the enterococcal isolates were diluted in physiological saline (0.9% NaCl) to reach a turbidity of 0.5 McFarland units (Sensititre® nephelometer and the Sensititre® McFarland Standard). Bacterial suspensions were adjusted to 5 × 10^5 CFU/mL in MHB II or BHI broth containing two-fold dilutions of peptidomimetics or conventional antibiotics in a final volume of 100 µL. The plates were incubated for 24 h at 37 °C without shaking. […] All experiments were performed in three biological replicates.

E. faecium (MV388) = assay: Membrane integrity, propidium iodide uptake by flow cytometry; format: cell-based, Enterococcus faecium; details: peptidomimetics at MBC, nisin at MIC; 5 min
Protocol: (§2) Membrane integrity was assessed by using a propidium iodide (PI) uptake assay, as previously described. In brief, 2 μL of stationary enterococcal cultures were transferred to Falcon round-bottom tubes (14 mL; Corning), each containing 2 mL fresh BHI medium. Cultures were grown to an OD600 of 0.2 at 37 °C with shaking (180 rpm). […] Then, 15 μL of culture was transferred into 980 μL filtered phosphate-buffered saline, and then stained for 5 min with 5 μL of 0.1 mg/mL PI. After staining, the red fluorescence levels (FL3 channel) in cells were recorded by using a BD Biosciences Accuri C6 flow cytometer (Becton Dickinson). The settings of the flow cytometer were as follows: 25,000 recorded events at an FSC threshold of 15,000, and medium flow rate. The gating of the stained cell population and analysis of flow cytometry data were performed in CFlow (BD Accuri). The assessment of membrane integrity was performed in three biological replicates for each condition.

E. faecalis (MV269) = assay: as above; format: cell-based, Enterococcus faecalis; details: peptidomimetics at MBC, nisin at MIC; 5 min
Protocol: as §2

human red blood cells = assay: Hemolytic activity; format: cell-based; details: 60 min, 37 °C, 1% red blood cell suspension
Method in brief: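 Washed cells (1% suspension) incubated with compound at final 400 μg/mL, 60 min at 37 °C with mild agitation, triplicate wells. Released hemoglobin read at OD405 in supernatant; percent hemolysis normalised to 1% SDS (100%) and PBS (0%).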

E. faecalis isolates = format: cell-based, Enterococcus faecalis; details: 24 h
Protocol: as §1

[3] = test system: E. faecium and E. faecalis isolates; assay: MIC summarised over all isolates; format: cell-based, Enterococcus faecium and Enterococcus faecalis; details: summary over all isolates
Protocol: as §1

| SMILES | Effect on the MIC of rifampicin (E. faecium ATCC 19434; compound supplemented at 0.25× MIC) | Reduction in the MIC of rifampicin (E. faecium ATCC 19434; compound supplemented at 0.5× MIC) | HepG2 IC50 [1] | Hydrophobicity, Luna C18(2) HST (0–60% B; 10 min), retention converted into % MeCN [2] | MIC (range or typical value) against E. faecium (E. faecium isolates) | Propidium iodide (PI) uptake, membrane integrity (E. faecium (MV388)) | Propidium iodide (PI) uptake, membrane integrity (E. faecalis (MV269)) | Hemolysis (at 400 µg/mL) (human red blood cells) | MIC (range) against E. faecalis (E. faecalis isolates) | MIC (range) against all E. faecium and E. faecalis isolates [3] |
| --- | --- | --- | --- | --- | --- | --- | --- | --- | --- | --- |
| CCCCCCCC(=O)N[C@@H](CCCCN)C(=O)N(CCC(=O)N[C@@H](CCCCN)C(=O)N(CCC(=O)N[C@@H](CCCCN)C(=O)N(CCC(=O)N[C@@H](CCCCN)C(=O)N(CCC(=O)N[C@@H](CCCCN)C(=O)N(CCC(=O)N[C@@H](CCCCN)C(=O)N(CCC(N)=O)[C@@H](C)c1ccccc1)[C@@H](C)c1ccccc1)[C@@H](C)c1ccccc1)[C@@H](C)c1ccccc1)[C@@H](C)c1ccccc1)[C@@H](C)c1ccccc1 [Compound 10, Oct-[Lys-βNspe]6-NH2] | no effect | 4–8 fold | 41 µg/mL | 47.2 % MeCN | 2 to 8 µg/mL | less perturbation of membrane integrity | less perturbation of membrane integrity | 6.9% | 4 to 16 µg/mL | – |
| CC(=O)N[C@@H](CCCCNC(=N)N)C(=O)N(CCC(=O)N[C@@H](CCCCNC(=N)N)C(=O)N(CCC(=O)N[C@@H](CCCCNC(=N)N)C(=O)N(CCC(=O)N[C@@H](CCCCNC(=N)N)C(=O)N(CCC(=O)N[C@@H](CCCCNC(=N)N)C(=O)N(CCC(=O)N[C@@H](CCCCNC(=N)N)C(=O)N(CCC(N)=O)[C@@H](C)C1CCCCC1)[C@@H](C)C1CCCCC1)[C@@H](C)C1CCCCC1)[C@@H](C)C1CCCCC1)[C@@H](C)C1CCCCC1)[C@@H](C)C1CCCCC1 [Compound 2, Ac-[hArg-βNsce]6-NH2] | – | – | 15 µg/mL | 51.6 % MeCN | – | significant accumulation of PI | significant accumulation of PI | – | – | 2 to 4 µg/mL |
| CC(=O)N[C@@H](CCCCNC(=N)N)C(=O)N(CCC(=O)N[C@@H](CCCCN)C(=O)N(CCC(=O)N[C@@H](CCCCNC(=N)N)C(=O)N(CCC(=O)N[C@@H](CCCCN)C(=O)N(CCC(=O)N[C@@H](CCCCNC(=N)N)C(=O)N(CCC(=O)N[C@@H](CCCCN)C(=O)N(CCC(N)=O)[C@@H](C)c1ccccc1)[C@@H](C)C1CCCCC1)[C@@H](C)c1ccccc1)[C@@H](C)C1CCCCC1)[C@@H](C)c1ccccc1)[C@@H](C)C1CCCCC1 [Compound 5, Ac-[hArg-βNsce-Lys-βNspe]3-NH2] | – | – | 73 µg/mL | 46.6 % MeCN | – | less perturbation of membrane integrity | less perturbation of membrane integrity | 9.4% | 4 to 16 µg/mL | – |
